Data from paper PMC10027976, “Phylogeny-guided genome mining of roseocin family lantibiotics to generate improved variants of roseocin” (AMB Express, 2023).
Where no end group is shown, it is not given here.

How the values were obtained:
[1] = tested on: M. luteus ATCC 10240; assay: MIC by micro broth-dilution method; format: cell-based, Micrococcus luteus; conditions: for MIC against M. luteus ATCC 10240: micro broth-dilution, Mueller Hinton Broth, 2 × 10^5 CFU/mL mixed 1:1 with lantibiotic, BSA-treated 96-well plates, overnight 37 °C, lowest concentration with no visible growth, Rosα (variant) with wild-type Rosβ
Protocol: (§1) The minimum inhibitory concentration of wild-type roseocin and its variants was determined with micro broth-dilution method. Sterile 96-well microtiter plates were treated with 200 µL of 1% (w/v) bovine serum albumin (BSA) in 1 × phosphate-buffered saline (PBS) solution at 37 °C for 30 min. After this, wells were washed with 1 × PBS to remove excess BSA (Ellis et al. [2020]). Log phase culture was diluted with Mueller Hinton Broth (MHB) to obtain 2 × 10^5 CFU/mL. The bacterial suspension and the lantibiotic were added to 96-well microplates at a ratio of 1:1. The microplates were incubated overnight at 37 °C. The lowest concentration at which no visible growth was observed, was considered MIC.

[2] = tested on: MSSA ATCC 25923; assay: MIC by micro broth-dilution method; format: cell-based, Staphylococcus aureus; conditions: for MIC against MSSA ATCC 25923: micro broth-dilution, Mueller Hinton Broth, 2 × 10^5 CFU/mL mixed 1:1 with lantibiotic, BSA-treated 96-well plates, overnight 37 °C, lowest concentration with no visible growth, Rosα (variant) with wild-type Rosβ
Protocol: as §1

[3] = tested on: M. luteus ATCC 10240 and methicillin-sensitive Staphylococcus aureus (MSSA) ATCC 25923; assay: MIC comparison of variants with wild-type roseocin, both strains; format: cell-based, Micrococcus luteus; Staphylococcus aureus; conditions: M. luteus ATCC 10240 and MSSA ATCC 25923, in combination with wild-type Rosβ
Protocol: as §1

[4] = tested on: M. luteus ATCC 10240; assay: Agar diffusion assay in synergism with Rosβ; format: cell-based, Micrococcus luteus; conditions: nutrient agar, leader removed with proteinase K, 4 μg, 2 μg and 1 μg with equal amount of Rosβ
Protocol: Overnight 10 mL culture of Micrococcus luteus (ATCC 10240), grown in nutrient broth, was diluted to 0.1 OD600 in the fresh 5 mL nutrient broth. The 1 μL/mL of the culture was used for the inoculation in nutrient agar before plating. The culture was added in bearable to touch media. The nutrient agar culture plates were used for checking the activity of Rosα variant peptides and wild type as a positive control, in synergism with Rosβ in a 1:1 ratio.
Alpha variant precursor peptides were cleaved with proteinase K to obtain their bioactive form, as described earlier (Singh et al. 2020) and were spotted with Rosβ in nutrient agar culture plate, in a dose-dependent manner i.e 1 µg, 2 µg, 4 µg (each).

[5] = compared with wild-type Rosα, in combination with wild-type Rosβ

Substance	Fold change of MIC against M. luteus ATCC 10240 relative to wild-type [1, 5]	MIC against M. luteus ATCC 10240 [1]	MIC against MSSA ATCC 25923 [2]	Change of MIC / inhibitory activity relative to wild-type roseocin (in words) [3]	Change of MIC / inhibitory activity relative to wild-type roseocin (in words) ([3]; listed as RosαL8W)	Fold change of MIC against MSSA ATCC 25923 relative to wild-type [2, 5]	Change of MIC / inhibitory activity relative to wild-type roseocin (in words) ([3]; listed as RosαL8F)	Zone of inhibition compared to wild type Rosα [4]
GAGSGVLGTWGCCSCLPWYSGWTVCGLACNPGKPCKN (also: bicyclic or more (positions not given here)) [Roseocin L8W, Rosα variant L8W, modified by RosM, tested in combination with wild-type Rosβ]	two-fold lower MIC	0.25 µM	2 µM	improvement in the MIC	significantly improved inhibitory activity	–	–	–
INGAGSGVLGTLGCCSCLPWYSGWTVCGLACNPGKPCKN (also: bicyclic or more (positions not given here)) [Roseocin (wild-type)]	–	0.5 µM	2 µM	–	–	–	–	–
NGAGSGVLGTFGCCSCLPWYSGWTVCGLACNPGKPCKN (also: bicyclic or more (positions not given here)) [Roseocin L8F, Rosα variant L8F, modified by RosM, tested in combination with wild-type Rosβ]	–	0.5 µM	0.5 µM	improvement in the MIC	–	four-fold lower MIC	significantly improved inhibitory activity	improved significantly
NGAGSGVLGTLGCCSCLPWYSGWTQCGLACNPGKPCKN (also: bicyclic or more (positions not given here)) [Roseocin V22Q, Rosα variant V22Q, modified by RosM, tested in combination with wild-type Rosβ]	–	> 8 µM	> 16 µM	loss of potency	–	–	–	–
NGAGSGVLGTLGCCWCLPWYSGWTVCGLACNPGKPCKN (also: bicyclic or more (positions not given here)) [Roseocin S12W, Rosα variant S12W, modified by RosM, tested in combination with wild-type Rosβ]	–	0.5 µM	> 16 µM	no improvement	–	–	–	–
Nisin [reference compound]	–	0.0625 µM	2 µM	–	–	–	–	–
